Experiment [1] deals with [Chlorella] fusca. The experiment in a line: Antialgal activity against Chlorella fusca at 50 ug by agar diffusion test. Format: functional. Particulars: Scenedesmus fuscus; read-out: IZ. A general note: Agar diffusion results depend on both activity and mobility in agar.
Experiment [2] deals with [Chlorella] fusca. The experiment in a line: Reduction of photosynthetic activity in green alga Chlorella fusca assessed as production of oxygen per hour at 0.2 mg/mL. Format: functional, Scenedesmus fuscus. On the set-up: scale not given: the % may be the effect or the level left.

`C[C@H]1C/C=C/[C@H]2[C@@H]3O[C@]3(C)[C@@H](C)[C@H]3[C@H](Cc4ccccc4)NC(=O)[C@]32OC(=O)/C=C/[C@@H](O)CCC1` [CYTOCHALASIN F]: the zone of inhibition at 50 µg/disc in experiment [Chlorella] fusca [1] worked out at 1 mm. In addition, the Activity in experiment [Chlorella] fusca [2] came out at 94.1%.
In the case of `C[C@]12CCC(=O)O[C@H]1C1=C[C@H]3OC(=O)[C@@]4(C)CCC[C@@](C)([C@@H]34)[C@]1(O)[C@H]2O` [GENICULOL], the zone of inhibition at 50 µg/disc in experiment [Chlorella] fusca [1] was found to be 2 mm.

The record behind these values is ChEMBL document CHEMBL1158000, “Geniculol, a new biologically active diterpene from the endophytic fungus geniculosporium sp.1” (1999).
